From PubChem BioAssay AID179 (DTP/NCI, 2004)
Active and inactive are the calls of the source.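 How the source made its calls: active means compounds giving half or more protection of infected cells from virus-caused growth loss, again on retest; inactive means the rest.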

Test system: CEM cells HIV-1 protection, formazan growth assay
Assay: NCI AIDS Antiviral Assay
Conditions: for IC50: measured here: growth of uninfected CEM cells
In short: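 CEM (human) cells, HIV-1 infected vs uninfected, 5-point dosing, formazan growth read-out. Retest threshold 50% protection.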

SMILES | EC50 | IC50 | outcome
N#C[C@H]1Nc2ccccc2[C@@H](O)C1O (stereo partly specified) | > 1320 µM | > 1320 µM | –
COCCCCCCCCCCCC(=O)OCC1OC(n2cc(C)c(=O)[nH]c2=O)CC1N=[N+]=[N-] (stereo unspecified) | 0.0269 µM | 34.7 µM | –
CC(C)COC(=O)N1N=NC2C3OC(CC3=O)C21 (stereo unspecified) | > 977 µM | > 977 µM | –
COc1cc(/C=C2\SC(=S)N(/C=C3\C(=O)C=C(C)OC3=O)C2=O)cc(OC)c1OC | > 200 µM | 18.2 µM | –
O=C(O)c1ccccc1-c1c2ccc(=O)c(I)c-2oc2c(I)c(O)ccc12 | > 316 µM | 19.1 µM | –
COc1ccc(C2CN(C(=O)c3ccccc3)N=C(c3ccccc3)O2)cc1 (stereo unspecified) | > 17 µM | > 17 µM | –
COc1cc(N=Nc2ccccc2)cc(/C=N/NC(N)=S)c1O | – | – | inactive
CCCCCCCCCCCCOC(=N)N(C)C | > 200 µM | 2 µM | –
COc1cc2c(c(OC)c1OC)C(=O)[C@@H](O)[C@H]2N | > 200 µM | > 100 µM | –
CCN(CCO)CCNc1ccc(C)c2sc3ccccc3c(=O)c12 | > 200 µM | 2.88 µM | –
CC(C)OP(=O)(OC(C)C)/C(=N/Nc1ccc([N+](=O)[O-])cc1)NNC(=O)c1ccccc1 | > 40.7 µM | 17 µM | –
COc1ccc(CCc2ccccc2CC(=O)O)cc1 | > 933 µM | 589 µM | –
O=C1CC(c2ccccc2)NN1c1ccccc1 (stereo unspecified) | – | – | inactive
O=c1c2ccccc2[se]n1-c1cccnc1 | 7.94 µM | 36.3 µM | –
CN(C)C(=O)N1CC[N+](C)([O-])CC1 | > 200 µM | > 200 µM | –
CCCc1cc(=O)oc2c3c(c4c(c12)OC(C)(C)C=C4)O[C@H](C)[C@@H](C)[C@@H]3OC(=O)CCl | 4.57 µM | 15.8 µM | –
Cc1ccc(-n2c(N)c(C#N)c3c(c2=S)CCC3)cc1 | > 129 µM | > 129 µM | –
COc1ccccc1C1CC(=O)CC(c2ccccc2OC)C12C(=O)NC(=S)NC2=O (stereo unspecified) | > 200 µM | 46.8 µM | –
Cc1ccccc1Nc1cn(CCOc2ccccc2)c(=O)n(CCOc2ccccc2)c1=O | > 200 µM | > 200 µM | –
C[N+]12CC3C4CC(C3C1)C2C4 (stereo unspecified) | > 912 µM | > 912 µM | –
Cn1cc(NC(=O)c2cc(NC(=O)c3cc(NC(=O)/C=C/C(=O)Nc4cn(C)c(C(=O)Nc5cn(C)c(C(=O)Nc6cn(C)c(C(=O)NCCC(=N)N)n6)n5)n4)cn3C)cn2C)cc1C(=O)NCCC(=N)N | > 7.76 µM | 1.45 µM | –
Cc1ccc(S(=O)(=O)OC2C(C)OCOC3COCOC32)cc1 (stereo unspecified) | > 145 µM | > 145 µM | –

SMILES | EC50 | IC50 | outcome
C=C(C)[C@@]1(O)CCCC[C@@H]1CC(Sc1ccccc1)Sc1ccccc1 | > 200 µM | 19.1 µM | –
Cc1sc(Nc2ccccc2[N+](=O)[O-])c(C#N)c1C | 15.5 µM | > 200 µM | –
COc1ccc2c(c1)CC1COc3cc(OC)ccc3C1O2 (stereo unspecified) | > 200 µM | > 200 µM | –
COC1=C(Br)[C@H](O)[C@@]2(C=C1Br)CC(C(=O)NCCCOc1c(Br)cc(C(O)CNC(C)=O)cc1Br)=NO2 (stereo partly specified) | > 10 µM | 6.61 µM | –
COc1cc(C2C(Cl)C(=O)N2NC(=O)Cc2ccccc2)cc(Br)c1O (stereo unspecified) | > 30.9 µM | > 30.9 µM | –
CCCCCN(CCCCC)CCC(=O)c1ccc2cc(Br)c3ccccc3c2c1 | > 200 µM | 12.6 µM | –
Cc1ccc(N2C(=O)N(c3ccc(C)cc3)C3(SC=NN3C)C2=O)cc1 (stereo unspecified) | – | – | inactive
OC12c3ccccc3C1CCCCCCCCCC21OCCCO1 (stereo unspecified) | > 200 µM | > 200 µM | –
CC(=O)OCCn1c([N+](=O)[O-])cnc1/C=[N+](/[O-])CCO | – | – | inactive
O=C(c1cc(O)c(O)c(O)c1)c1ccc(O)c(O)c1O | > 200 µM | 3.98 µM | –
O=c1[nH]c(=O)n(C2COC(CO)C2O)cc1F (stereo unspecified) | > 200 µM | 6.03 µM | –
Cc1ccc(NC(=O)CCc2nnc3s/c(=C\C=C\c4ccccc4)c(=O)n23)cc1 | > 61.7 µM | > 61.7 µM | –
Clc1cc(Cl)c(NN=C(c2ccccc2)c2ccccc2)c(Cl)c1 | > 200 µM | > 200 µM | –
CC(NC(=O)NC(C)(C)C)NC(=O)C(N)CC(=O)O (stereo unspecified) | > 200 µM | > 200 µM | –
O=CCCn1[nH]c(=O)ccc1=O | > 1480 µM | 1410 µM | –
CCOC(=O)C(=O)Nc1c(N(CC)CC)n2ccccc2nc1=O | > 676 µM | > 676 µM | –
N#Cc1ccc(Oc2cccc(Oc3ccccc3)c2)cc1C#N | > 43.7 µM | > 43.7 µM | –
c1ccc(C2=C(c3ccccc3)Sc3nnc(CCCCCCCCc4nnc5n4NC(c4ccccc4)=C(c4ccccc4)S5)n3N2)cc1 | > 200 µM | 89.1 µM | –
C#CCN(Cc1ccc2nc(-c3ccccc3)c(Cl)nc2c1)c1cc(OC)c(OC)c(OC)c1 | > 7.94 µM | > 7.94 µM | –
O=C1C(N=Nc2ccc(Cl)cc2)Sc2nc3ccccc3n21 (stereo unspecified) | – | – | inactive
Oc1ccc(Cl)cc1/C=N/Nc1nnc(N/N=C/c2cc(Cl)ccc2O)c2ccccc12 | > 200 µM | 1 µM | –
Oc1cccc2cc(Br)cnc12 | > 20 µM | 5.01 µM | –

SMILES | EC50 | IC50 | outcome
Cc1nc2ccc3c(ccc4nc(C)c(N=Nc5ccc(C(=N)N)cc5)c(O)c43)c2c(O)c1N=Nc1ccc(C(=N)N)cc1 | > 200 µM | 11 µM | –
CCOC(=O)c1c2c(nc3c1CCC/C3=C\c1ccccc1)/C(=C/c1ccccc1)CCC2 | > 200 µM | > 200 µM | –
O=Cc1cn(S(=O)(=O)c2ccccc2)c2ccccc12 | – | – | inactive
O=C(CCCn1ccnc1[N+](=O)[O-])NCCn1cnc([N+](=O)[O-])n1 | > 200 µM | > 200 µM | –
CCOC(=O)C(Cc1ccc([N+](=O)[O-])cc1)NC(=O)CC1c2ccccc2-c2ccccc21 (stereo unspecified) | > 11.7 µM | > 11.7 µM | –
Cc1ccc(C)c(NC(=O)CC/C(=N\NC(=O)C(N)=O)C(C)C(=O)c2ccc(O)cc2)c1 (stereo unspecified) | > 155 µM | > 155 µM | –
COC(=N)C1(C#N)NC(c2ccsc2)C(C#N)(C#N)NC1c1ccsc1 (stereo unspecified) | > 200 µM | 56.2 µM | –
NC1=Nc2ccccc2Sc2nncn21 | > 200 µM | 151 µM | –
COC(=O)[C@H](COC(C)(C)C)NC(=O)N[C@H](C)c1ccccc1 | > 200 µM | > 200 µM | –
CC(=Nc1ccccc1C(=O)[O-])c1c([O-])ccc2c(C)cc(=O)oc12.[OH3+].[OH3+].[OH3+].[Zn+2] | > 2.29 µM | > 2.29 µM | –
CC(C)(C)c1cc(Nc2c([N+](=O)[O-])cc([N+](=O)[O-])cc2[N+](=O)[O-])cc(C(C)(C)C)c1O | > 16.6 µM | > 16.6 µM | –
O=c1[nH]c(=O)c2nnoc2[nH]1 | > 200 µM | 75.9 µM | –
O=[N+]([O-])c1ccc(OCc2nnc(CCCCCCCCc3nnc(COc4ccc([N+](=O)[O-])cc4)o3)o2)cc1 | > 200 µM | > 200 µM | –
CC(=O)c1ccc(NC(=O)C(=O)C(C#N)CC(C)(C)C=O)cc1 (stereo unspecified) | > 83.2 µM | > 83.2 µM | –
O=NN(CCCl)C(=O)NC1CCCCC1 | > 1070 µM | 35.5 µM | –
CCOC(=O)/C(=C\c1cn(C(C)=O)c2ccccc12)P(C)(=O)OCC (stereo unspecified) | > 200 µM | 55 µM | –
Cc1ccc(S(=O)(=O)NC(N)=NCCCC(NC(=O)OCc2ccccc2)C(=O)N[C@H]2CC[C@H]3[C@@H]4CC=C5C[C@@H](O)CC[C@]5(C)[C@H]4CC[C@]23C)cc1 (stereo partly specified) | > 200 µM | 34.7 µM | –
O[C@H]1[C@H]2c3cc4c(cc3CN3CCC(=C[C@@H]1O)[C@H]23)OCO4 | > 2 µM | 0.372 µM | –
C[C@H]1CC[C@H]([C@@H](C)[C@H]2[C@@H](O)C[C@H]3[C@@H]4CC[C@H]5C[C@@H](O)CC[C@]5(C)[C@H]4CC[C@]23C)NC1 | > 200 µM | 12.6 µM | –
COc1cccc2c(NCCCN(C)C)c3c([N+](=O)[O-])ccc(OC)c3nc12 | > 2 µM | 0.257 µM | –
NC(Cc1ccc(S(=O)(=O)O)cc1)C(=O)NC(Cc1ccc(S(=O)(=O)O)cc1)C(=O)NC(Cc1ccc(S(=O)(=O)O)cc1)C(=O)O (stereo unspecified) | > 200 µM | > 200 µM | –
c1ccc(SC2(Sc3ccccc3)CCCCCCCCCCC2)cc1 | > 200 µM | 166 µM | –

SMILES | EC50 | IC50 | outcome
C/C(=N\NC(=O)c1ccncc1)c1cccc(F)c1 | > 195 µM | > 195 µM | –
OC1CN=C2c3ccccc3C(O)(c3ccc(Cl)cc3)N2C1 (stereo unspecified) | > 200 µM | 44.7 µM | –
N/C(=N/N=C/c1cccnc1)NO | – | – | inactive
O=C(Nc1ccccc1C(=O)NCc1ccccc1)/C(=C/c1ccccc1O)NC(=O)c1ccccc1 | – | – | inactive
O=S(=O)(O)NC1CCCCC1 | > 200 µM | > 200 µM | –
CCN(CC)c1ccc2cc(C(N)=S)c(=N)oc2c1 | > 61.7 µM | 20.4 µM | –
O=C1OC(c2ccc(Cl)c3ccccc23)c2ccccc21 (stereo unspecified) | > 17.8 µM | > 17.8 µM | –
Nc1nc(Cl)cc(NCC2(O)CCC2)n1 | > 200 µM | > 200 µM | –
CN(C)c1nc(N(C)C)n2c(-c3ccccc3[N+](=O)[O-])nnc2n1 | > 60.3 µM | 41.7 µM | –
CCOCNC=O | > 2400 µM | 1480 µM | –
O=C1c2ccccc2C(=O)N1n1c(Cc2ccccc2)n[nH]c1=O | > 200 µM | > 200 µM | –
CC(/C=N/Nc1ccc([N+](=O)[O-])cn1)=N/Nc1ccc([N+](=O)[O-])cn1 | > 200 µM | > 200 µM | –
O=C(O)CCC(=O)NC(c1ccccc1)c1ccccc1 | > 200 µM | > 200 µM | –
CC(=O)Nc1ccc(SSc2ccc(NC(C)=O)c3cccnc23)c2ncccc12 | > 200 µM | 2.34 µM | –
C[C@]12CCC(=O)O[C@H]1CCCCO2 | > 200 µM | > 200 µM | –
CC(=O)OC(/C=C1/C=CC(=O)O1)COC(=O)c1ccccc1 (stereo unspecified) | > 309 µM | 5.89 µM | –
CNC(=O)NCCCC(NC(C)=O)C(=O)NCc1ccccc1 (stereo unspecified) | > 112 µM | > 112 µM | –
Cc1cc(C#N)c(Nc2ccc(F)cc2[N+](=O)[O-])s1 | > 200 µM | > 200 µM | –
O=[N+]([O-])c1ccc2nc(/C=C(\O)c3ccccc3)c(/C=C(\O)c3ccccc3)nc2c1 | > 200 µM | 20 µM | –
C(=Nc1cnc2ccccc2c1)c1ccc2ccccc2n1 | > 35.5 µM | 19.1 µM | –
Br/C=C(\Br)C[N+]12CN3CN(CN(C3)C1)C2 | > 200 µM | 110 µM | –
